The values that follow come from patent US20240041976A1, “COMPOSITION AND USE” (priority 2020, published 2024).

Read-outs that look alike come from different tables or passages of the source. No end group written: not given here. Where only a bound is given, the exact number is not on record here.

Experiment [1] deals with three MRSA strains (ATCC33591-lux, USA-300 and MRSA 43484). In words: AAMP assay and checkerboard synergy, summary. As to conditions: for synergy with GarKS: checkerboard assay. It counts as cell-based, Staphylococcus aureus. The method, then:
Briefly, equal amounts of antimicrobial A were applied on microtiter plate 1 in wells A1-H1 and then diluted two-fold to wells 2-12. Similarly, equal amounts of antimicrobial B were applied on microtiter plate 2 in wells A1-A12 and diluted two-fold in wells B-H. Volumes of 50 μl of antimicrobial A from each well of microtiter plate 1 were transferred into microtiter plate 3, except for wells H1-H12. Similarly, the same volumes were transferred from microtiter plate 2 into plate 3, except for wells A1-A8. […] A 50 μl volume of pure broth was added into each well in lines H1-H12 and A1-A8 which were used to estimate MIC values of pure substances (blank).
Three-component synergy was assessed by mixing the three components (100 μg of PenG, 50 μg of GarKS and 2.5 μg of MP1) into one well of a microtiter plate, compared with activity of individual antimicrobials on the same plate.

The subject of the next experiment is MRSA ATCC 33591-lux. The experiment is described as follows: AAMP assay and checkerboard synergy. It counts as cell-based, Staphylococcus aureus. As to conditions: for MIC: Staphylococcus aureus, 24 h, read-out: MIC, single antimicrobial. The method, then: (§1) Antimicrobial activity was measured using the AAMP assay (Wiegand et al., 2008, Nat. Protoc., Vol. 3(2), p 163-175).
(§2) Synergy testing was done with a microtiter plate checkerboard assay as previously described (Orhan et al., 2005, J. Clin. Microbiol., Vol. 43(1), p 140-143). Briefly, equal amounts of antimicrobial A were applied on microtiter plate 1 in wells A1-H1 and then diluted two-fold to wells 2-12. Similarly, equal amounts of antimicrobial B were applied on microtiter plate 2 in wells A1-A12 and diluted two-fold in wells B-H. Volumes of 50 μl of antimicrobial A from each well of microtiter plate 1 were transferred into microtiter plate 3, except for wells H1-H12. Similarly, the same volumes were transferred from microtiter plate 2 into plate 3, except for wells A1-A8. A 100 μl volume of 25 times diluted ON bacterial culture of MRSA was transferred into each well of plate 3. A 50 μl volume of pure broth was added into each well in lines H1-H12 and A1-A8 which were used to estimate MIC values of pure substances (blank).
(§3) Three-component synergy was assessed by mixing the three components (100 μg of PenG, 50 μg of GarKS and 2.5 μg of MP1) into one well of a microtiter plate, compared with activity of individual antimicrobials on the same plate. The fractional inhibition concentration (FIC) which was used to define synergy was calculated as set forth in Example 1.

Another experiment has as its system MRSA USA-300. In words: AAMP assay and checkerboard synergy. It counts as cell-based, Staphylococcus aureus. The following applies: MRSA USA-300; for MIC: Staphylococcus aureus, 24 h, read-out: MIC, single antimicrobial. The method, then:
as §1, §2, §3

A further experiment has as its system MRSA 43484. The experiment is described as follows: AAMP assay and checkerboard synergy. The class given is cell-based, Staphylococcus aureus. As to conditions: MRSA 43484; for MIC: Staphylococcus aureus, 24 h, read-out: MIC, single antimicrobial. The method, then:
as §1, §2, §3

Experiment [2] has as its system S. pseudintermedius MRSP 45. The experiment is described as follows: microbe, parasite or virus in culture. The class given is cell-based, Staphylococcus pseudintermedius. As to conditions: 24 h; for MIC: Staphylococcus pseudintermedius, MRSP45, MRSP 45, Table 8, read-out: MIC, single component. The procedure: as §1, §2
(§4) Antimicrobial activity was measured using the AAMP assay as described in Example 2.
(§5) Synergy testing was performed as in Example 2.

In another experiment the test system is S. aureus LMG3266. The experiment is described as follows: AAMP assay (MIC), single components and formulation mixture. It counts as cell-based, Staphylococcus aureus. The following applies: Staphylococcus aureus, LMG3266, 24 h; read-out: MIC, single component. The method, then: as §1, §3
A further experiment deals with S. aureus LMG3264. The description is as above. It counts as cell-based, Staphylococcus aureus. The following applies: Staphylococcus aureus, LMG3264, 24 h; read-out: MIC, single component. The procedure: as §1, §3
The next experiment deals with S. aureus LMG3026. The experiment is described as above. The class given is cell-based, Staphylococcus aureus. As to conditions: Staphylococcus aureus, LMG3026, 24 h; read-out: MIC, single component. The method, then: as §1, §3
The subject of the next experiment is S. aureus LMG3242. The description is as above. As to conditions: Staphylococcus aureus, LMG3242, 24 h; read-out: MIC, single component. It counts as cell-based, Staphylococcus aureus. The procedure:
as §1, §3

In the next experiment the test system is S. aureus LMG3263. Described as above. The class given is cell-based, Staphylococcus aureus. As to conditions: Staphylococcus aureus, LMG3263, 24 h; read-out: MIC, single component. The method, then: as §1, §3
In a further experiment the test system is S. aureus LMG3322. Described as above. The class given is cell-based, Staphylococcus aureus. The following applies: Staphylococcus aureus, LMG3322, 24 h; read-out: MIC, single component. The procedure:
as §1, §3

Another experiment has as its system S. aureus LMG3265. The description is as above. The class given is cell-based, Staphylococcus aureus. The following applies: Staphylococcus aureus, LMG3265, 24 h; read-out: MIC, single component. The procedure: as §1, §3
The next experiment relates to S. aureus LMG3307. The description is as above. It counts as cell-based, Staphylococcus aureus. The following applies: Staphylococcus aureus, LMG3307, 24 h; read-out: MIC, single component. The procedure:
as §1, §3

The subject of another experiment is S. aureus LMG3258. The description is as above. The class given is cell-based, Staphylococcus aureus. As to conditions: Staphylococcus aureus, LMG3258, 24 h; read-out: MIC, single component. The procedure: as §1, §3
The test system of a further experiment is S. aureus LMG3255. Described as above. The class given is cell-based, Staphylococcus aureus. As to conditions: Staphylococcus aureus, LMG3255, 24 h; read-out: MIC, single component. The procedure: as §1, §3
The next experiment has as its system S. aureus LMG3271. The experiment is described as above. It counts as cell-based, Staphylococcus aureus. As to conditions: Staphylococcus aureus, LMG3271, 24 h; read-out: MIC, single component. The procedure: as §1, §3
The subject of another experiment is S. aureus LMG3314. Described as above. It counts as cell-based, Staphylococcus aureus. The following applies: Staphylococcus aureus, LMG3314, 24 h; read-out: MIC, single component. The procedure: as §1, §3
Another experiment has as its system S. aureus LMG3328. The description is as above. As to conditions: Staphylococcus aureus, LMG3328, 24 h; read-out: MIC, single component. The class given is cell-based, Staphylococcus aureus. The procedure: as §1, §3
Another experiment deals with MRSA ATCC 33591. In words: microbe, parasite or virus in culture. The class given is cell-based, Staphylococcus aureus. As to conditions: for MIC: Staphylococcus aureus, 24 h, read-out: MIC, single antimicrobial. The procedure:
as §1, §2, §4, §5

As for `CC1(C)S[C@@H]2[C@H](NC(=O)[C@H](N)c3ccccc3)C(=O)N2[C@H]1C(=O)O` [Amp, Ampicillin], the “MIC of the antimicrobial in comb. with GarKS” value (from here on “MIC of the antimicrobial”) (in experiment [1] (All three strains); in the experiment on MRSA ATCC 33591-lux (MRSA ATCC 33591-lux); in the experiment on MRSA USA-300; in the experiment on MRSA 43484) was 16 µg/mL each time. The “MIC of the component when combined” value in [1] (GarKS with Amp or PenG) was 16 µg/mL. In addition, the MIC was over 2500 µg/mL in experiment [1] (Staphylococcus aureus, 24 h, All three strains, read-out: MIC, single antimicrobial); under 2500 µg/mL with MRSA ATCC 33591-lux; under 2500 µg/mL in the experiment on MRSA USA-300; under 2500 µg/mL in the experiment with MRSA 43484. Also, the “synergy with GarKS” value in experiment [1] is “moderate synergy”.
Turning to `CC[C@H]1OC(=O)[C@H](C)[C@@H](O[C@H]2C[C@@](C)(OC)[C@@H](O)[C@H](C)O2)[C@H](C)[C@@H](O[C@@H]2O[C@H](C)C[C@H](N(C)C)[C@H]2O)[C@](C)(O)C[C@@H](C)C(=O)[C@H](C)[C@@H](O)[C@]1(C)O` [Ery, Erythromycin], the “MIC of the antimicrobial” value was 16 to 62 µg/mL in experiment [1] (All three strains), 62 µg/mL in the experiment on MRSA ATCC 33591-lux (MRSA ATCC 33591-lux), 16 µg/mL in the experiment with MRSA USA-300 and 32 µg/mL in the experiment with MRSA 43484. For the same molecule, in experiment [1], the “synergy with GarKS” value is reported as “no synergy or only additive effects”. The “MIC, single antimicrobial” value in the experiment on MRSA ATCC 33591-lux (MRSA ATCC 33591-lux) was over 250 µg/mL. The MIC was over 250 µg/mL in the experiment with MRSA ATCC 33591-lux (MRSA ATCC 33591-lux); 31 µg/mL in the experiment with MRSA USA-300; 62 µg/mL with MRSA 43484; over 250 µg/mL in [2]; over 2500 µg/mL in the experiment on S. aureus LMG3266; under 2.5 µg/mL in the experiment on S. aureus LMG3264. Further, the MIC in the experiment on S. aureus LMG3026 was under 2.5 µg/mL; in the experiment with S. aureus LMG3242, under 2.5 µg/mL; in the experiment with S. aureus LMG3263, over 2500 µg/mL; with S. aureus LMG3322, under 2.5 µg/mL; in the experiment on S. aureus LMG3265, over 2500 µg/mL; with S. aureus LMG3307 it was under 2.5 µg/mL. In addition, the MIC in the experiment on S. aureus LMG3258, in the experiment on S. aureus LMG3255, in the experiment on S. aureus LMG3271, in the experiment with S. aureus LMG3314 and in the experiment with S. aureus LMG3328 was under 2.5 µg/mL each time.
As to `CC(C)=CCCC(C)=CCCC(C)=CCO` [Farnesol], in the experiment on MRSA ATCC 33591, the “MIC of MP1 in comb. with the labelled antimicrobial” value (“MIC of MP1” for short) worked out at 0.08 µg/mL, the “MIC of the labelled antimicrobial in comb. with MP1” value (shortened to “MIC of the labelled antimicrobial”) was determined as 14 µg/mL and the MIC stood at 56 µg/mL.
For the molecule `CC(=O)O[C@H]1C[C@@]2(C)[C@@H](C[C@@H](O)[C@H]3[C@@]4(C)CC[C@@H](O)[C@@H](C)[C@@H]4CC[C@@]32C)/C1=C(\CCC=C(C)C)C(=O)O` [Fusidic acid], in the experiment with MRSA ATCC 33591, the “MIC of MP1” value worked out at 0.15 µg/mL, the “MIC of the labelled antimicrobial” value is 0.04 µg/mL and the MIC came to 0.6 µg/mL. For the same molecule, the MIC in experiment [2] stood at 1.25 µg/mL.
Turning to `CN(C)[C@@H]1C(O)=C(C(N)=O)C(=O)[C@@]2(O)C(O)=C3C(=O)c4c(O)cccc4[C@@](C)(O)[C@H]3C[C@@H]12` [Tet, Tetracycline], the “MIC of the antimicrobial” value with MRSA ATCC 33591-lux (MRSA ATCC 33591-lux) came out at 38 µg/mL; in the experiment on MRSA USA-300 it was 0.6 µg/mL; in the experiment on MRSA 43484 it was 0.6 µg/mL. Further, the “MIC of MP1” value in the experiment with MRSA ATCC 33591 worked out at 0.08 µg/mL. The “MIC of the labelled antimicrobial” value in the experiment with MRSA ATCC 33591 stood at 10 µg/mL. The MIC in the experiment on MRSA ATCC 33591 was 150 µg/mL; in experiment [2], 150 µg/mL; in the experiment with S. aureus LMG3264, 2.4 µg/mL; in the experiment with S. aureus LMG3026 it was 77 µg/mL; in the experiment with S. aureus LMG3263, 2.4 µg/mL; in the experiment on S. aureus LMG3322 it was under 0.3 µg/mL. Moreover, the MIC in the experiment with S. aureus LMG3265 worked out at 2.4 µg/mL; in the experiment with S. aureus LMG3307 it was 0.6 µg/mL; in the experiment with S. aureus LMG3255, 2.4 µg/mL; with S. aureus LMG3271, 2.4 µg/mL.
Consider `C=C(NC(=O)[C@@H](NC(=O)[C@H](Cc1c[nH]cn1)NC(=O)[C@@H](NC(=O)[C@H](CO)NC(=O)[C@@H]1CS[C@@H](C)[C@H]2NC(=O)[C@H](C)NC(=O)[C@H](NC(=O)[C@H](CCCCN)NC(=O)[C@H](CCSC)NC(=O)[C@H](CC(N)=O)NC(=O)[C@@H]3CS[C@@H](C)[C@@H](NC(=O)[C@H](CCCCN)NC(=O)[C@@H]4CS[C@@H](C)[C@@H](NC(=O)[C@@H]5CSC[C@@H](NC(=O)/C(=C/C)NC(=O)[C@@H](N)[C@@H](C)CC)C(=O)N[C@@H]([C@@H](C)CC)C(=O)NC(=C)C(=O)N[C@@H](CC(C)C)C(=O)N5)C(=O)N5CCC[C@H]5C(=O)NCC(=O)N4)C(=O)NCC(=O)N[C@@H](C)C(=O)N[C@@H](CC(C)C)C(=O)N[C@@H](CCSC)C(=O)NCC(=O)N3)[C@H](C)SC[C@H](NC2=O)C(=O)N[C@@H](CC(N)=O)C(=O)N1)[C@@H](C)CC)C(C)C)C(=O)N[C@@H](CCCCN)C(=O)O` [nisinZ], for which, in the experiment with MRSA ATCC 33591, the “MIC of MP1” value turned out to be 0.3 µg/mL; the “MIC of the labelled antimicrobial” value was determined as 0.8 µg/mL; the “MIC, single antimicrobial” value is over 12.5 µg/mL.
With “MIKKFPNPYTLAAKLTTYEINWYKQQYGRYPWERPVA [EJ97 short]”, in experiment [2], the “MIC, single component” value is over 25 µg/mL.
